Test results from US10945986B2, “Treatment for ischemic stroke” (CHS Pharma, Inc., priority 2012, dated 2021).

How the values were obtained:
P-IRE-1 = P-IRE-1 expression (Western blot) in primary neuronal cultures subjected to hypoxia and reoxygenation; format: cell-based; conditions: 24 hours hypoxia, 16 hours reoxygenation; densitometry vs actin
Experimental: (§1) Primary neuronal cultures were subjected to 24 hours of hypoxia followed by 16 hours of reoxygenation and cells were harvested for protein extraction and Western blot analysis for expression of P-IRE-1. Levels of P-IRE-1 were quantified by densitometry and expressed as a percentage of the signal for actin control samples.

Bcl-2 = assay: Western blot of Bcl-2 in core and penumbra, MCAO model; format: in vivo, rat
Hsp27 = assay: Western blot of Hsp27 in core and penumbra, MCAO model; format: in vivo, rat; conditions: DETC-MeSO treatment prior to MCAO surgery and reperfusion, N=8
Text: Western blotting on the core and the penumbra tissue of both hemispheres was employed for analysis of the expression of key proteins involved in apoptosis (Bcl-2), and cell protection and survival e.g., two heat shock proteins (HSP27, HSP70) and AKT.

[1] = test system: C/EBP homologues protein (CHOP); assay: CHOP expression (Western blot) in primary neuronal cultures subjected to hypoxia and reoxygenation; format: cell-based; conditions: 24 hours hypoxia, 16 hours reoxygenation; densitometry vs actin
Experimental: as §1, with “CHOP.” for “P-IRE-1.”, “CHOP” for “P-IRE-1”

[2] = test system: middle cerebral artery occlusion (MCAO) stroke-induced brain infarction; assay: MCAO rat stroke model, infarct size by TTC staining; format: in vivo, Sprague-Dawley rats; conditions: for reduction of ischemia-induced brain infarct size: DETC-MeSO 5.6 mg/kg i.p. 24 hr post MCAO/reperfusion, 8 animals; for effect of individual drug on ischemia-induced infarct size: individual drug at 1/10 dose (G-CSF 10 ug/kg; DETC-MeSO 0.56 mg/kg; sulindac 0.2 mg/kg), 24 hrs post MCAO
CHOP = assay: Western blot of CHOP, MCAO model; format: in vivo, rat; conditions: G-CSF, Western blotting
JNK = conditions: rat, in vivo
pAKT = conditions: rat, in vivo

| Molecule | P-IRE-1 expression of hypoxia cells compared to DETC-MeSO-treated cells subjected to hypoxia (P-IRE-1) | Bcl-2 expression vs non-treated control animals (Bcl-2; DETC-MeSO treatment prior to MCAO surgery and reperfusion, core and penumbra, N=8) | Hsp-27 expression vs non-treated control animals (Hsp27) | CHOP expression of hypoxia cells compared to DETC-MeSO-treated cells subjected to hypoxia [1] | infarct size as % of the area of the infarcts in the no-drug control group ([2]; 2 injections: 60 minutes before ischemia and 20 minutes before start of reperfusion, TTC) [%] | reduction of ischemia-induced brain infarct size ([2]; daily, 4 days) | reduction of ischemia-induced brain infarct size ([2]; daily, 8 days) | brain infarct size (morphological observation, TTC) ([2]; DETC-MeSO 5.6 mg/kg intraperitoneal 24 hr post MCAO/reperfusion, daily, both 4 and 8 days) | brain infarct size ([2]; DETC-MeSO 5.6 mg/kg one hour before MCAO surgery and reperfusion, continued 4 days, sacrificed 4th day, 1% TTC) | decrease in infarct size compared with the no-drug treated group ([2]; DETC-MeSO 5.6 mg/kg pre-MCAO, 4 days, at 6 mm from frontal pole, N=21) [%] | brain infarct size compared to the control group ([2]; DETC-MeSO 1-7 mg, two injections (1 hr before MCAO surgery, day 11), sacrificed 11th day, 1% TTC) | effect of individual drug on ischemia-induced infarct size ([2]; 8 days) | CHOP expression (pro-apoptotic protein) (CHOP) | JNK expression (pro-survival/anti-apoptotic marker) (JNK) | Bcl-2 expression (pro-survival/anti-apoptotic marker) (Bcl-2; rat, in vivo) | pAKT expression (pro-survival/anti-apoptotic marker) (pAKT) | ischemia-induced brain infarct size vs non-treated control animals ([2]; G-CSF 50 μg/kg, 24 hours post ischemia) | infarct volume vs control group ([2]; G-CSF 50 μg/kg, 24 hours post ischemia, n=5) | percentage of infarct volume in entire brain vs control group ([2]; G-CSF 50 μg/kg, 24 hours post ischemia, n=5, P<0.05) |
| --- | --- | --- | --- | --- | --- | --- | --- | --- | --- | --- | --- | --- | --- | --- | --- | --- | --- | --- | --- |
| CCN(CC)C(=O)[S+](C)[O-] (stereo not drawn) [DETC-MeSO, S-methyl-N, N-diethylthiolcarbamate sulfoxide] | 3-3.5 times | significantly increased | significantly increased | about double | 29 | 64+/−11% | 61+/−7% | significantly reduced | significantly reduced | 50 | significantly reduced | no significant effect |  |  |  |  |  |  |  |
| granulocyte colony-stimulating factor (protein, UniProt P09919 31-207, looked up, granulocyte colony-stimulating factor; a stem cell enhancer and facilitator) Granulocyte …: TPLGPASSLPQSFLLKCLEQVRKIQGDGAALQEKLVSECATYKLCHPEELVLLGHSLGIPWAPLSSCPSQALQLAGCLSQLHSGLFLYQGLLQALEGISPELGPTLDTLQLDVADFATTIWQQMEELGMAPALQPTQGAMPAFASAFQRRAGGVLVASHLQSFLEVSYRVLRHLAQP |  |  |  |  |  |  |  |  |  |  |  | no significant effect | down-regulation | up-regulation | up-regulation | up-regulation | greatly reduced | significantly reduced | significantly reduced |
